Measured values from US5908846A (priority 1993, dated 1999).
Converted amounts (≈) assume the structure as drawn.

Key:
[1] = In vitro skin permeation (diffusion) study, open Franz diffusion cells, whole abdominal human skin; settings: for Flux, IPM: steady state, IPM solution not saturated, human skin
[2] = pH 7
[3] = Apparent partition coefficient (P) between octanol and pH 7.4 aqueous buffer at 21° C.; settings: octanol / phosphate buffer
Protocol: (§1) The experimental methods used for these determinations are described below.
The concentration of the compounds in the aqueous phase before and after partitioning was determined by HPLC analysis, and the partition coefficients determined.

in vitro = settings: human
physchem = experiment: physchem
Protocol: as §1
The mixtures were placed in an ultrasonic bath for 10 min and then rotated on a mechanical spindle for 24 h and filtered. After rotation for 1 h the pH of the phosphate buffer mixtures was adjusted to 7.0. An aliquot of the filtrates was diluted with water or acetonitrile and analyzed by HPLC.

[4] = isopropyl myristate, organic solvent or mixture
[5] = phosphate buffer, pH 7, aqueous buffer

| Compound | Flux, IPM ([1]; 200 mg/ml) | Flux, Buffer [2] | logD [3] | Papp (in vitro) | Papp (in vitro; pH 7) | solubility at 24 h (physchem; [4]) | solubility at 24 h (physchem; [5]) | Amount penetrated present in the receptor phase as the 6-monoester ([1]; receptor phase composition after human skin permeation) | Flux, IPM ([1]; 125 mg/ml) |
| --- | --- | --- | --- | --- | --- | --- | --- | --- | --- |
| 3-Butoxy-morphlne | 8.3 ± 2.2 μg/cm^2 /h |  |  |  |  |  |  |  |  |
| CCCCCC(=O)Oc1ccc2c3c1O[C@H]1[C@@H](OC(=O)CCCCC)C=C[C@H]4[C@@H](C2)N(C)CC[C@@]341 [3,6-Dihexanoyl-morphine, 3,6-dihexanoyl morphine] | 11.7 ± 1.2 μg/cm^2 /h | 1.7 ± 0.2 μg/cm^2 /h | > 4 | > 0.0444 ×10⁻⁶ cm/s | 38.9 ×10⁻⁶ cm/s | > 200 mg/mL | 0.02 mg/mL (≈ 0.0415 mM) |  |  |
| CC(C)C(=O)Oc1ccc2c3c1O[C@H]1[C@@H](OC(=O)C(C)C)C=C[C@H]4[C@@H](C2)N(C)CC[C@@]341 [3,6-Diisobutyryl-morphine, 3,6-diisobutyryl morphine] |  |  | 2.6 |  |  | 80 mg/mL (≈ 188 mM) | 0.6 mg/mL (≈ 1.41 mM) |  |  |
| CCC(=O)Oc1ccc2c3c1O[C@H]1[C@@H](OC(=O)CC)C=C[C@H]4[C@@H](C2)N(C)CC[C@@]341 [3,6-Dipropionyl-morphine, 3,6-dipropionyl morphine] |  | 2.5 ± 0.5 μg/cm^2 /h | 1.66 |  | 0.278 ×10⁻⁶ cm/s | 41 mg/mL (≈ 103 mM) | 3.6 mg/mL (≈ 9.06 mM) | ~50% |  |
| CC(=O)Oc1ccc2c3c1O[C@H]1[C@@H](O)C=C[C@H]4[C@@H](C2)N(C)CC[C@@]341 [3-Acetyl-morphine] | 11.4 ± 1.8 μg/cm^2 /h |  |  |  |  |  |  |  |  |
| CCCCCC(=O)Oc1ccc2c3c1O[C@H]1[C@@H](O)C=C[C@H]4[C@@H](C2)N(C)CC[C@@]341 [3-Hexanoyl-morphine, 3-hexanoyl morphine] |  | 25.3 ± 4.2 μg/cm^2 /h | 2.04 | > 0.0667 ×10⁻⁶ cm/s | 3.61 ×10⁻⁶ cm/s | > 150 mg/mL | 2.6 mg/mL (≈ 6.78 mM) |  | 35.6 ± 12.0 μg/cm^2 /h |
| CC(C)C(=O)Oc1ccc2c3c1O[C@H]1[C@@H](O)C=C[C@H]4[C@@H](C2)N(C)CC[C@@]341 [3-Isobutyryl-morphine] | 27.0 ± 3.3 μg/cm^2 /h |  |  |  |  |  |  |  |  |
| CCC(=O)Oc1ccc2c3c1O[C@H]1[C@@H](O)C=C[C@H]4[C@@H](C2)N(C)CC[C@@]341 [3-Propionyl-morphine, 3-propionyl morphine] |  |  | 0.66 |  |  | 79 mg/mL (≈ 231 mM) | 21 mg/mL (≈ 61.5 mM) |  |  |
| CCCCC(=O)Oc1ccc2c3c1O[C@H]1[C@@H](O)C=C[C@H]4[C@@H](C2)N(C)CC[C@@]341 [3-Valeryl-morphine] | 16.5 ± 2.7 μg/cm^2 /h |  |  |  |  |  |  |  |  |
